Assay results reported in patent US8916711B2, “Imidazothiazole-chalcone derivatives as potential anticancer agents and process for the preparation thereof” (Council of Scientific and Industrial Research, priority 2009, dated 2014).
Read-outs that look alike come from different tables or passages of the source.

Experiments:
Assay type in all cases: cell-based
HT29 = assay: NCI in vitro cytotoxicity (SRB, 48 h), Colon panel; conditions: Homo sapiens, HT-29, 48 h exposure
KM12 = assay: NCI in vitro cytotoxicity (SRB, 48 h), Colon panel; conditions: Homo sapiens, 48 h exposure
CCRF-CEM = assay: NCI in vitro cytotoxicity (SRB, 48 h), Leukemia panel; conditions: Homo sapiens, 48 h exposure
SK-MEL-28 = assay: NCI in vitro cytotoxicity (SRB, 48 h), Melanoma panel; conditions: Homo sapiens; SK-MEL-28, Melanoma; 48 h exposure
TK-10 = assay: NCI in vitro cytotoxicity (SRB, 48 h), Renal panel; conditions: Homo sapiens; TK-10, Renal; 48 h exposure
PC-3 = assay: NCI in vitro cytotoxicity (SRB, 48 h), Prostate panel; conditions: Homo sapiens; PC-3, Prostate; 48 h exposure
LOX IMVI = assay: NCI in vitro cytotoxicity (SRB, 48 h), Melanoma panel; conditions: Homo sapiens, 48 h exposure
SK-OV-3 = assay: NCI in vitro cytotoxicity (SRB, 48 h), Ovarian panel; conditions: Homo sapiens; SK-OV-3, Ovarian; 48 h exposure
UO-31 = assay: NCI in vitro cytotoxicity (SRB, 48 h), Renal panel; conditions: Homo sapiens; UO-31, Renal; 48 h exposure
[1] = system: Ovarian cancer cell lines; assay: NCI in vitro cytotoxicity, whole panel; conditions: Homo sapiens
Melanoma cell lines = assay: NCI in vitro cytotoxicity, whole panel; conditions: Homo sapiens
NCI-H522 = assay: NCI in vitro cytotoxicity (SRB, 48 h), Non-small cell lung panel; conditions: Homo sapiens, 48 h exposure
OVCAR-8 = assay: NCI in vitro cytotoxicity (SRB, 48 h), Ovarian panel; conditions: Homo sapiens; OVCAR-8, Ovarian; 48 h exposure
SK-MEL-5 = assay: NCI in vitro cytotoxicity (SRB, 48 h), Melanoma panel; conditions: Homo sapiens; SK-MEL-5, Melanoma; 48 h exposure
M14 = assay: as above; conditions: Homo sapiens, 48 h exposure
Leukemia cell lines = assay: NCI in vitro cytotoxicity, whole panel; conditions: Homo sapiens
[2] = system: sixty human tumour cell lines; assay: NCI in vitro cytotoxicity, all panels
U251 = assay: NCI in vitro cytotoxicity (SRB, 48 h), CNS panel; conditions: Homo sapiens, U-251, 48 h exposure
Renal cancer cell lines = assay: NCI in vitro cytotoxicity, whole panel; conditions: Homo sapiens
HS 578T = assay: NCI in vitro cytotoxicity (SRB, 48 h), Breast panel; conditions: Homo sapiens, 48 h exposure
HOP-92 = assay: NCI in vitro cytotoxicity (SRB, 48 h), Non-small cell lung panel; conditions: Homo sapiens
SR = assay: NCI in vitro cytotoxicity (SRB, 48 h), Leukemia panel; conditions: Homo sapiens, 48 h exposure
Method: (§1) The imidazothiazole-chalcone hybrids 7a, 7e, 7f, 8f and 19e have been tested against sixty human tumour cell lines derived from nine cancer types (leukemia, non-small cell lung cancer, colon cancer, CNS cancer, melanoma, ovarian cancer, renal cancer, prostate cancer and breast cancer) as per NCI protocol. For each compound, dose response curves for individual cell lines have been measured at a minimum of five concentrations at 10 fold dilutions. A protocol of 48 h continuous drug exposure has been used, and a sulforhodamine B (SRB) protein assay was used to estimate cell viability or growth. The concentration for 50% cell growth inhibition (GI50), total cell growth inhibition (TGI, 0% growth) and 50% cell death (LC50, […]) compared with the control has been calculated (Table-1).

HL-60(TB) = assay: as above; conditions: Homo sapiens, 48 h exposure
Method: as §1

786-0 = assay: NCI in vitro cytotoxicity (SRB, 48 h), Renal panel; conditions: Homo sapiens; 786-0, Renal; 48 h exposure
OVCAR-3 = assay: NCI in vitro cytotoxicity (SRB, 48 h), Ovarian panel; conditions: Homo sapiens; OVCAR-3, Ovarian; 48 h exposure
MDA-MB-468 = assay: NCI in vitro cytotoxicity (SRB, 48 h), Breast panel; conditions: Homo sapiens; MDA-MB-468, Breast; 48 h exposure
OVCAR-4 = assay: NCI in vitro cytotoxicity (SRB, 48 h), Ovarian panel; conditions: Homo sapiens; OVCAR-4, Ovarian; 48 h exposure
DU-145 = assay: NCI in vitro cytotoxicity (SRB, 48 h), Prostate panel; conditions: Homo sapiens; DU-145, Prostate; 48 h exposure
[3] = system: Prostate cancer cell lines; assay: NCI in vitro cytotoxicity, whole panel; conditions: Homo sapiens
HOP-62 = assay: NCI in vitro cytotoxicity (SRB, 48 h), Non-small cell lung panel; conditions: Homo sapiens; HOP-62, Non-small cell lung; 48 h exposure
MALME-3M = assay: NCI in vitro cytotoxicity (SRB, 48 h), Melanoma panel; conditions: Homo sapiens, 48 h exposure
HCT-15 = assay: NCI in vitro cytotoxicity (SRB, 48 h), Colon panel; conditions: Homo sapiens; HCT-15, Colon; 48 h exposure
EKVX = assay: NCI in vitro cytotoxicity (SRB, 48 h), Non-small cell lung panel; conditions: Homo sapiens, 48 h exposure

## COc1cc(C(=O)/C=C/c2c(-c3ccc(F)cc3)nc3sccn23)cc(OC)c1OC [Compound 7e, (E)-3-(6-(4-fluorophenyl)imidazo[2,1-b]thiazol-5-yl)-1-(3,4,5-trimethoxyphenyl)prop-2-en-1-one]
HT29
  GI50: 2840 nM
KM12
  GI50: 2300 nM
CCRF-CEM
  GI50: 2230 nM
SK-MEL-28
  GI50: 4190 nM
TK-10
  GI50: 5810 nM
PC-3
  GI50: 3430 nM
LOX IMVI
  GI50: 1850 nM
SK-OV-3
  GI50: 3020 nM
UO-31
  GI50: 2030 nM
[1]; Ovarian, average of six to eight cell lines, read-out: Log10 GI50 (converted)
  GI50: 2190 nM
[1]; Ovarian, average of six to eight cell lines, read-out: Log10 LC50 (converted)
  CC50: 52500 nM
[1]; exposure period of at least 48 hrs, read-out: GI50, range over ovarian cell lines
  GI50: 1040 to 3780 nM
Melanoma cell lines; Melanoma, average of six to eight cell lines, read-out: Log10 GI50 (converted)
  GI50: 2630 nM
Melanoma cell lines; Melanoma, average of six to eight cell lines, read-out: Log10 LC50 (converted)
  CC50: 42700 nM
Melanoma cell lines; exposure period of at least 48 hrs, read-out: GI50, range over melanoma cell lines
  GI50: 1820 to 8270 nM
NCI-H522
  GI50: 2320 nM
OVCAR-8
  GI50: 1980 nM
SK-MEL-5
  GI50: 1450 nM
M14
  GI50: 2750 nM
Leukemia cell lines; Leukemia, average of six to eight cell lines, read-out: Log10 GI50 (converted)
  GI50: 1860 nM
Leukemia cell lines; Leukemia, average of six to eight cell lines, read-out: Log10 LC50 (converted)
  CC50: 70800 nM
Leukemia cell lines; exposure period of at least 48 hrs, read-out: GI50, range over leukemia cell lines
  GI50: 1550 to 2230 nM
[2]; Homo sapiens, sixty cell lines, nine panels, read-out: GI50 against sixty cell lines in nine cell panels
  GI50: < 9000 nM
[2]; human tumour cell lines
  Log10 TGI mean graph midpoint (MG_MID): −5.02
  in vitro cytotoxicity, in words: significant cytotoxicity
[2]; human tumour cell lines, read-out: Log10 GI50 mean graph midpoint (MG_MID) (converted)
  GI50: 2240 nM
[2]; human tumour cell lines, read-out: Log10 LC50 mean graph midpoint (MG_MID) (converted)
  CC50: 58900 nM
U251
  GI50: 2180 nM
Renal cancer cell lines; Renal, average of six to eight cell lines, read-out: Log10 GI50 (converted)
  GI50: 1550 nM
Renal cancer cell lines; Renal, average of six to eight cell lines, read-out: Log10 LC50 (converted)
  CC50: 87100 nM
Renal cancer cell lines; exposure period of at least 48 hrs, read-out: GI50, range over renal cell lines
  GI50: 40 to 5810 nM
HS 578T
  GI50: 2050 nM
HOP-92; HOP-92, Non-small cell lung, 48 h exposure
  GI50: 1050 nM
HOP-92; HOP-92, non-small cell lung
  GI50: 1050 nM
HOP-92; HOP-92, Table 4, read-out: Comparative efficacy
  IC50: 1050 nM
SR
  GI50: 1730 nM
HL-60(TB)
  GI50: 1770 nM
786-0
  GI50: 2510 nM
OVCAR-3
  GI50: 2160 nM
MDA-MB-468
  GI50: 3170 nM
OVCAR-4
  GI50: 3780 nM
DU-145
  GI50: 2450 nM
[3]; Prostate cell, exposure period of at least 48 hrs, read-out: GI50, range over prostate cell lines
  GI50: 2450 to 3430 nM
[3]; Prostate, average of the panel's cell lines, read-out: Log10 GI50 (converted)
  GI50: 2950 nM
[3]; Prostate, average of the panel's cell lines, read-out: Log10 LC50 (converted)
  LC50: ≥ 100000 nM
HOP-62
  GI50: 2250 nM
MALME-3M
  GI50: 8270 nM
HCT-15
  GI50: 2940 nM
EKVX
  GI50: 2740 nM
